Source: patent US8680272B2, “3-arylethynyl substituted quinazolinone compounds” (Council of Scientific & Industrial Research, priority 2011, dated 2014)

Tests used:
[1] = tested on: PC-3; experiment: Anticancer activity, SRB assay, prostate cell line PC-3; type: cell-based, human; details: Homo sapiens; Prostate PC-3; 48 h continuous drug exposure; —^b means GI50 values not attained at the concentrations used; read-out: Growth Inhibition GI50
Experimental: (§1) Some of biological activity studies were carried out at the National Cancer Institute (NCI), Maryland, USA.
(§2) The compounds were evaluated for anticancer activity against sixty human cancer cells derived from nine cancer types (leukemia cell line, non-small-cell lung cell line, colon cell line, CNS cell line, melanoma cell line, ovarian cell line, prostate cell line, renal cell line and breast cancer cell line) as shown in Table 1. For each compound, dose response curves for each cell line were measured at a minimum of five concentrations at 10 fold dilutions. A protocol of 48 h continuous drug exposure was used and a sulforhodamine B (SRB) protein assay was used to estimate cell viability or growth.

[2] = tested on: TK-10; experiment: Anticancer activity, SRB assay, renal cell line TK-10; type: cell-based, human; details: Homo sapiens; Renal TK-10; 48 h continuous drug exposure; —^b means GI50 values not attained at the concentrations used; read-out: Growth Inhibition GI50
Experimental: as §1, §2

[3] = tested on: MDA-MB-435; experiment: Anticancer activity, SRB assay, melanoma cell line MDA-MB-435; type: cell-based, human; details: Homo sapiens; Melanoma MDA-MB-435; 48 h continuous drug exposure; —^b means GI50 values not attained at the concentrations used; read-out: Growth Inhibition GI50
Experimental: as §1, §2

[4] = tested on: UO-31; experiment: Anticancer activity, SRB assay, renal cell line UO-31; type: cell-based, human; details: Homo sapiens; Renal UO-31; 48 h continuous drug exposure; —^b means GI50 values not attained at the concentrations used; read-out: Growth Inhibition GI50
Experimental: as §1, §2

[5] = tested on: SNB-75; experiment: Anticancer activity, SRB assay, CNS cell line SNB-75; type: cell-based, human; details: Homo sapiens; CNS SNB-75; 48 h continuous drug exposure; —^b means GI50 values not attained at the concentrations used; read-out: Growth Inhibition GI50
Experimental: as §1, §2

[6] = tested on: SK-MEL-28; experiment: Anticancer activity, SRB assay, melanoma cell line SK-MEL-28; type: cell-based, human; details: Homo sapiens; Melanoma SK-MEL-28; 48 h continuous drug exposure; —^b means GI50 values not attained at the concentrations used; read-out: Growth Inhibition GI50
Experimental: as §1, §2

[7] = tested on: LOX IMVI; experiment: Anticancer activity, SRB assay, melanoma cell line LOX IMVI; type: cell-based; details: Homo sapiens, 48 h continuous drug exposure, read-out: Growth Inhibition GI50
Experimental: as §1, §2

[8] = tested on: SR; experiment: Anticancer activity, SRB assay, leukemia cell line SR; type: cell-based; details: Homo sapiens, 48 h continuous drug exposure, read-out: Growth Inhibition GI50
Experimental: as §1, §2

[9] = tested on: T-47D; experiment: Anticancer activity, SRB assay, breast cell line T-47D; type: cell-based, human; details: Homo sapiens, T47D; Breast T-47D; 48 h continuous drug exposure; —^b means GI50 values not attained at the concentrations used; read-out: Growth Inhibition GI50
Experimental: as §1, §2

[10] = tested on: UACC-62; experiment: Anticancer activity, SRB assay, melanoma cell line UACC-62; type: cell-based; details: Homo sapiens; Melanoma UACC-62; 48 h continuous drug exposure; read-out: Growth Inhibition GI50
Experimental: as §1, §2

[11] = tested on: U251; experiment: Anticancer activity, SRB assay, CNS cell line U251; type: cell-based; details: Homo sapiens, U-251, 48 h continuous drug exposure, read-out: Growth Inhibition GI50
Experimental: as §1, §2

[12] = tested on: OVCAR-5; experiment: Anticancer activity, SRB assay, ovarian cell line OVCAR-5; type: cell-based, human; details: Homo sapiens; Ovarian OVCAR-5; 48 h continuous drug exposure; —^b means GI50 values not attained at the concentrations used; read-out: Growth Inhibition GI50
Experimental: as §1, §2

[13] = tested on: six leukemia cancer cell lines (CCRF-CEM, HL-60, K-562, MOLT-4, SR and RPMI-8226); experiment: Anticancer activity, SRB assay, leukemia panel; type: cell-based, human; details: for GI50: Homo sapiens, six leukemia cancer cell lines, exposure period of at least 48 h, read-out: GI50 (range over the panel); for mean graph midpoint values (MG_MID) of log10 TGI (Log10TGI50) / mean graph midpoint values (MG_MID) of Log10LC50 / mean graph midpoint values (MG_MID) of Log10GI50: Leukemia; for mean graph midpoint values (MG_MID) of log10 TGI (Log10TGI50): log value of concentration of the compound resulting in total inhibition of net cell growth; for mean graph midpoint values (MG_MID) of Log10LC50: log value of the concentration of compounds leading to 50% net cell death; for mean graph midpoint values (MG_MID) of Log10GI50: log values of concentration in mol/L causing 50% inhibition of net cell growth
Experimental: as §1, §2

[14] = tested on: HCT-15; experiment: Anticancer activity, SRB assay, colon cell line HCT-15; type: cell-based; details: Homo sapiens; Colon HCT-15; 48 h continuous drug exposure; read-out: Growth Inhibition GI50
Experimental: as §1, §2

[15] = tested on: sixty human cancer cell lines derived from nine cancer types; experiment: Anticancer activity against sixty human cancer cell lines; type: cell-based
Experimental: as §1, §2

[16] = tested on: eight renal cancer cell line (786-0, A498, ACHN, CAKI-1, SN12C, TK-10, UO-31 and RXF 393); experiment: Anticancer activity, SRB assay, renal panel; type: cell-based, human; design: mean graph midpoint values (MG_MID) of Log10LC50 / mean graph midpoint values (MG_MID) of log10 TGI (Log10TGI50): unit not given here; details: for GI50: Homo sapiens, eight renal cancer cell line, exposure period of at least 48 h, read-out: in vitro anticancer activity (range over the panel); for mean graph midpoint values (MG_MID) of log10 TGI (Log10TGI50) / mean graph midpoint values (MG_MID) of Log10LC50 / mean graph midpoint values (MG_MID) of Log10GI50: Renal; for mean graph midpoint values (MG_MID) of log10 TGI (Log10TGI50): log value of concentration of the compound resulting in total inhibition of net cell growth; for mean graph midpoint values (MG_MID) of Log10LC50: log value of the concentration of compounds leading to 50% net cell death; for mean graph midpoint values (MG_MID) of Log10GI50: log values of concentration in mol/L causing 50% inhibition of net cell growth
Experimental: as §1, §2

[17] = tested on: HT29; experiment: Anticancer activity, SRB assay, colon cell line HT29; type: cell-based; details: Homo sapiens, HT-29, 48 h continuous drug exposure, read-out: Growth Inhibition GI50
Experimental: as §1, §2

[18] = tested on: NCI-H460; experiment: Anticancer activity, SRB assay, non-small lung cell line NCI-H460; type: cell-based; details: Homo sapiens, Non-small lung NCl-H460, 48 h continuous drug exposure, read-out: Growth Inhibition GI50
Experimental: as §1, §2

[19] = tested on: DU-145; experiment: Anticancer activity, SRB assay, prostate cell line DU-145; type: cell-based, human; details: Homo sapiens; Prostate DU-145; 48 h continuous drug exposure; —^b means GI50 values not attained at the concentrations used; read-out: Growth Inhibition GI50
Experimental: as §1, §2

[20] = tested on: CAKI-1; experiment: Anticancer activity, SRB assay, renal cell line CAKI-1; type: cell-based; details: Homo sapiens; Renal CAKI-1; 48 h continuous drug exposure; read-out: Growth Inhibition GI50
Experimental: as §1, §2

[21] = tested on: UACC-257; experiment: Anticancer activity, SRB assay, melanoma cell line UACC-257; type: cell-based; details: Homo sapiens; Melanoma UACC-257; 48 h continuous drug exposure; read-out: Growth Inhibition GI50
Experimental: as §1, §2

[22] = tested on: MALME-3M; experiment: Anticancer activity, SRB assay, melanoma cell line MALME-3M; type: cell-based; details: Homo sapiens; Melanoma MALME-3M; 48 h continuous drug exposure; read-out: Growth Inhibition GI50
Experimental: as §1, §2

[23] = tested on: SF-539; experiment: Anticancer activity, SRB assay, CNS cell line SF-539; type: cell-based, human; details: Homo sapiens; CNS SF-539; 48 h continuous drug exposure; —^b means GI50 values not attained at the concentrations used; read-out: Growth Inhibition GI50
Experimental: as §1, §2

[24] = tested on: MCF7; experiment: Anticancer activity, SRB assay, breast cell line MCF7; type: cell-based; details: Homo sapiens, 48 h continuous drug exposure, read-out: Growth Inhibition GI50
Experimental: as §1, §2

[25] = tested on: SNB-19; experiment: Anticancer activity, SRB assay, CNS cell line SNB-19; type: cell-based, human; details: Homo sapiens; CNS SNB-19; 48 h continuous drug exposure; —^b means GI50 values not attained at the concentrations used; read-out: Growth Inhibition GI50
Experimental: as §1, §2

[26] = tested on: 786-0; experiment: Anticancer activity, SRB assay, renal cell line 786-0; type: cell-based, human; details: Homo sapiens; Renal 786-0; 48 h continuous drug exposure; —^b means GI50 values not attained at the concentrations used; read-out: Growth Inhibition GI50
Experimental: as §1, §2

[27] = tested on: NCI-H322M; experiment: Anticancer activity, SRB assay, non-small lung cell line NCI-H322M; type: cell-based, human; details: Homo sapiens, NCI-H322M; Non-small lung NCl-H322M; 48 h continuous drug exposure; —^b means GI50 values not attained at the concentrations used; read-out: Growth Inhibition GI50
Experimental: as §1, §2

Structure (SMILES) | GI50 [1] | GI50 [2] | GI50 [3] | GI50 [4] | GI50 [5] | GI50 [6] | GI50 [7] | GI50 [8] | GI50 [9] | GI50 [10] | GI50 [11] | GI50 [12] | GI50 [13] | mean graph midpoint values (MG_MID) of log10 TGI (Log10TGI50) [13] | mean graph midpoint values (MG_MID) of Log10LC50 [13] | mean graph midpoint values (MG_MID) of Log10GI50 [13] | GI50 [14] | in vitro anticancer activity (in words) [15] | GI50 [16] | mean graph midpoint values (MG_MID) of log10 TGI (Log10TGI50) [16] | also measured
Cc1cc(C#Cc2ccccc2)ccc1-n1c(/C=C/c2ccc(O)cc2)nc2ccccc2c1=O [Compound 4b, (E)-2-(4-Hydroxystyryl)-3-(2-methyl-4-(phenylethynyl)phenyl)quinazolin-4(3H)-one] | 3240 nM | 2620 nM | 2820 nM | 2060 nM | 3660 nM | 4.54 µM | 2780 nM | 2450 nM | 2020 nM | 3480 nM | 4330 nM | 4590 nM | 1660 to 3260 nM | −4.49 | >−4.00 | −5.64 mol/L | 2500 nM | exhibiting an in vitro anticancer activity | 1560 to 3770 nM | −4.65 | mean graph midpoint values (MG_MID) of Log10LC50 [16]: >−4.00; mean graph midpoint values (MG_MID) of Log10GI50 [16]: −5.52 mol/L; GI50 [17]: 3330 nM; GI50 [18]: 2220 nM; GI50 [19]: 4870 nM; GI50 [20]: 3300 nM; GI50 [21]: 4180 nM; GI50 [22]: 2120 nM; GI50 [23]: 5.65 µM; GI50 [24]: 2720 nM; GI50 [25]: 6.91 µM; GI50 [26]: 3650 nM; GI50 [27]: 2930 nM
Cc1cc(C#Cc2ccccc2)ccc1-n1c(/C=C/c2cc(O)ccc2O)nc2ccccc2c1=O [Compound 4c, (E)-2-(2,5-Dihydroxystyryl)-3-(2-methyl-4-(phenylethynyl)phenyl)quinazolin-4(3H)-one] | 2190 nM | 2030 nM | 1670 nM | 1160 nM | 1300 nM | 1.53 µM | 1370 nM | 1100 nM | 1140 nM | 1520 nM | 1450 nM | 1390 nM | 634 to 1540 nM | −5.38 | −4.40 | −5.94 mol/L | 1030 nM | exhibiting an in vitro anticancer activity | 370 to 2150 nM | −5.43 | mean graph midpoint values (MG_MID) of Log10LC50 [16]: −4.93; mean graph midpoint values (MG_MID) of Log10GI50 [16]: −5.86 mol/L; GI50 [17]: 1950 nM; GI50 [18]: 1570 nM; GI50 [19]: 419 nM; GI50 [20]: 2150 nM; GI50 [21]: 1560 nM; GI50 [22]: 1500 nM; GI50 [23]: 1.6 µM; GI50 [24]: 1450 nM; GI50 [25]: 1.62 µM; GI50 [26]: 1740 nM; GI50 [27]: 1620 nM
